Source: US9850272B2, “Therapeutically active estratrienthiazole derivatives as inhibitors of 17.beta-hydroxy-steroid dehydrogenase, type 1” (FORENDO PHARMA LTD, priority 2013, dated 2017)
Where a name gives a salt, the structure may show the parent alone.

Experiments:
[1] = target: T1, Recombinant Human 17β-HSD1 (Homo sapiens, UniProt P14061); test: Inhibition of recombinant human 17β-HSD1 (conversion of 3H-estrone to estradiol, HPLC); type: biochemical; settings: inhibitor at 1 μM, 30 nM estrone, 1 mM NADPH, 30 min at RT; for inhibition at 1 µM: read-out: 17β-HDS1 Inhibition % at 1 μM
T1 construct: made in house; host or cells: Sd9 (Sf9) insect cells, baculovirus (Bac to Bac Expression System)
T1 sequence (P14061 1-328): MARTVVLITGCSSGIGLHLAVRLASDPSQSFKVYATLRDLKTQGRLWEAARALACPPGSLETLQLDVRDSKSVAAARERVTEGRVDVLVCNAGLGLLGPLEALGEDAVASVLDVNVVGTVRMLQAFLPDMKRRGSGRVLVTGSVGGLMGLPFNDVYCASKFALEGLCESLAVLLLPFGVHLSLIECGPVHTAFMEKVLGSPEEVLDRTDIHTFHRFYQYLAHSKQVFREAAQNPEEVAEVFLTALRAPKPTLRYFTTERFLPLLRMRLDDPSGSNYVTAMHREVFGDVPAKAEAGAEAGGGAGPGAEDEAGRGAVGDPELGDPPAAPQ
Experimental: 17β-HSD1 Production and Isolation:
Recombinant baculovirus was generated by the “Bac to Bac Expression System” (Invitrogen). Recombinant bacmid was transfected to Sd9 insect cells using “Cellfectin Reagent” (Invitrogen). 60 h later cells were harvested; the microsomal fraction was isolated as described by Puranen, T. J., Poutanen, M. H., Peltoketo, H. E., Vihko, P. T. and Vihko, R. K. (1994) Site-directed mutagenesis of the putative active site of human 17 β-hydroxysteroid dehydrogenase type 1. Biochem. J. 304: 289-293. Aliquots were stored frozen until determination of enzymatic activity.
Assay—Inhibition of Recombinant Human 17β-HSD1:
Recombinant protein (1 μg/ml) was incubated in 20 mM KH2PO4 pH 7.4 with 30 nM estrone (including 800.000 cpm/ml of ^3H-estrone) and 1 mM NADPH for 30 min at RT, in the presence of the potential inhibitor at concentrations 1 μM or 0.1 μM. Inhibitor stock solutions were prepared in DMSO. Final concentration of DMSO was adjusted to 1% in all samples. The enzyme reaction was stopped by addition of 10% trichloroacetic acid (final concentration). Samples were centrifuged in a microtiter plate at 4000 rpm for 10 min. Supernatants were applied to reverse phase HPLC on a Waters Symmetry C18 column, equipped with a Waters Sentry Guard column. Isocratic HPLC runs were performed at RT at a flow rate of 1 ml/min in acetonitrile:water 48:52 as running solvent. Radioactivity was monitored in the eluate by a Packard Flow Scintillation Analyzer. Total radioactivity for estrone and estradiol were determined in each sample and percent conversion of estrone to estradiol was calculated according to the following formula:
(§1) Percent inhibition was calculated flowingly: % inhibition=100−% conversion

[2] = target: T2, Recombinant Human 17β-HSD2 (Homo sapiens, UniProt P37059); test: Inhibition of recombinant human 17β-HSD2 (conversion of 3H-estradiol to estrone, HPLC); type: biochemical; settings: inhibitor at 1 μM, 50 nM estradiol, 1 mM NADH, 30 min at RT; for inhibition at 1 µM: read-out: 17β-HSD2 Inhibition % at 1 μM
T2 construct: made in house; host or cells: Sd9 (Sf9) insect cells, baculovirus (Bac to Bac Expression System)
T2 sequence (P37059 1-387): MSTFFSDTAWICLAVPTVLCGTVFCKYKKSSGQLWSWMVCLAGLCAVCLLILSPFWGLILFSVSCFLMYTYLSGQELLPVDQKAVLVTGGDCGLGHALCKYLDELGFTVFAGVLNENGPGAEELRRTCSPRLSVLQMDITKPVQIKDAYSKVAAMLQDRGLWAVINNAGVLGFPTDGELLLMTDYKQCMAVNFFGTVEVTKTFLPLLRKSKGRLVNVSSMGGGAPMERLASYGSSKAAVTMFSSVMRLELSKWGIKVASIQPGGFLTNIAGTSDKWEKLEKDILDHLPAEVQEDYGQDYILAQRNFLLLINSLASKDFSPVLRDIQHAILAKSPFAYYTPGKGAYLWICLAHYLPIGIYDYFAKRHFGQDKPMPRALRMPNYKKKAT
Experimental: 17β-HSD2 Production and Isolation:
Similarly to 17β-HSD1 the Recombinant baculovirus was generated by the “Bac to Bac Expression System” (Invitrogen). Recombinant bacmid was transfected to Sd9 insect cells using “Cellfectin Reagent” (Invitrogen). 60 h later cells were harvested and supernatant were fractionated by the following protocol: • cells were dissolved into 40 ml of A-buffer (40 mM TRIS, pH8.0, 20% glycerol, 20 μM NAD, 0.4 mM PMSF, 150 mM NaCl, 0.5% dodecyl-β-maltoside+protease inhibitor cocktail) • cells were sonicated • lysate was incubated on ice for 15 min • lysate was centrifuged 5000 rpm 15 min, +4° C. • centrifugation of the supernatant 180.000 g 30 min, +4° C. • pellet was dissolved into 8 ml of A-buffer • not resuspended material was removed by centrifugation 5000 rpm 15 min, +4° C. • the clear supernatant was divided into 100 μl aliquots and were stored frozen until determination of enzymatic activity.
The amount of 17β-HSD2 was analysed by immunoblotting and total protein concentration of each extract batch was determined.
Assay—Inhibition of Recombinant Human 17β-HSD2:
Recombinant protein (4 μg/ml) was incubated in 20 mM KH2PO4 pH 8.5 with 50 nM estradiol (including 800.000 cpm/ml of ^3H-estradiol) and 1 mM NADH for 30 min at RT, in the presence of the potential inhibitor at concentrations 1 μM or 0.1 μM. Inhibitor stock solutions were prepared in DMSO. Final concentration of DMSO was adjusted to 1% in all samples. The enzyme reaction was stopped by addition of 10% trichloroacetic acid (final concentration). Samples were centrifuged in a microtiter plate at 4000 rpm for 10 min. Supernatants were applied to reverse phase HPLC on a Waters Symmetry C18 column, equipped with a Waters Sentry Guard column. Isocratic HPLC runs were performed at RT at a flow rate of 1 ml/min in acetonitrile:water 48:52 as running solvent. Radioactivity was monitored in the eluate by a Packard Flow Scintillation Analyzer. Total radioactivity for estrone and estradiol were determined in each sample and percent conversion of estradiol to estrone was calculated according to the following formula:
as §1

[3] = Metabolic stability assay, human liver microsome and homogenate incubations; type: in vitro ADME; settings: human liver homogenate or microsomes
Experimental: Metabolic Stability Assay The in vitro metabolic stability of the compounds of the invention was determined for exemplified compounds using human liver microsome and homogenate incubations. The incubation time points used with or without appropriate cofactors were 0 min and 60 min. Samples were collected at both time points and substrates were detected using LC/PDA/TOF-MS. In vitro metabolic stability (% remaining after 60 min in human liver homogenate or microsomes) of the compounds were calculated and the results are summarized in Table 3.

Row | Compound | inhibition at 1 µM [1] [%] | inhibition at 1 µM [2] [%] | In vitro metabolic stability, % remaining after 60 min [3] [%] | 17β-HDS1 Inhibition % at 1 μM ([1]; dihydrochloride) [%] | 17β-HSD2 Inhibition % at 1 μM ([2]; dihydrochloride) [%]
1 | CO[C@H]1C[C@@H](CCC(=O)Nc2ncc(C)s2)C2C3CCc4cc(O)ccc4C3CC[C@@]21C (stereo partly drawn) [Compound 17, 3-((13S,15R,17S)-3-hydroxy-17-methoxy-13-methyl-7,8,9,11,12,13,14,15,16,17-decahydro-6H-cyclopenta[a]phenanthren-15-yl)-N-(5-methylthiazol-2-yl)propanamide] | 79 | 4 | 37 | – | –
2 | CCCC[C@]1(O)C[C@@H](CCC(=O)Nc2ncc(C)s2)C2C3CCc4cc(O)ccc4C3CC[C@@]21C (stereo partly drawn) [Compound 19, 3-((13S,15R,17S)-17-butyl-3,17-dihydroxy-13-methyl-7,8,9,11,12,13,14,15,16,17-decahydro-6H-cyclopenta[a]phenanthren-15-yl)-N-(5-methylthiazol-2-yl)propanamide] | 93 | 6 | 90 | – | –
3 | CC(=O)O[C@H]1C[C@@H](CCC(=O)Nc2ncc(C)s2)C2C3CCc4cc(OC(=O)c5ccccc5)ccc4C3CC[C@@]21C (stereo partly drawn) [Compound 55, Benzoic acid (13S,15R,17S)-17-acetoxy-13-methyl-15-[2-(5-methylthiazol-2-ylcarbamoyl)-ethyl]-17-oxo-7,8,9,11,12,13,14,15,16,17-decahydro-6H-cyclopenta[a]phenanthren-3-yl ester] | – | – | 47 | – | –
4 | Cc1cnc(NC(=O)CC[C@@H]2CC(NCCCN(C)C)[C@@]3(C)CCC4c5ccc(O)cc5CCC4C23)s1 (stereo partly drawn) [Compound 80a, 3-[(13S,15R)-17-(3-Dimethylamino-propylamino)-3-hydroxy-13-methyl-7,8,9,11,12,13,14,15,16,17-decahydro-6H-cyclopenta[a]phenanthren-15-yl]-N-(5-methylthiazol-2-yl)propionamide] | 70 | 1 | – | – | –
5 | Cc1cnc(NC(=O)CC[C@@H]2CC(NCCCN(C)C)[C@@]3(C)CCC4c5ccc(O)cc5CCC4C23)s1 (stereo partly drawn) [Compound 80b, 3-[(13S,15R)-17-(3-Dimethylamino-propylamino)-3-hydroxy-13-methyl-7,8,9,11,12,13,14,15,16,17-decahydro-6H-cyclopenta[a]phenanthren-15-yl]-N-(5-methylthiazol-2-yl)propionamide dihydrochloride] | – | – | – | 61 | 2
6 | Cc1cnc(NC(=O)CC[C@@H]2CC(NCCN(C)C)[C@@]3(C)CCC4c5ccc(O)cc5CCC4C23)s1 (stereo partly drawn) [Compound 81, 3-[(13S,15R)-17-(2-Dimethylamino-ethylamino)-3-hydroxy-13-methyl-7,8,9,11,12,13,14,15,16,17-decahydro-6H-cyclopenta[a]phenanthren-15-yl]-N-(5-methylthiazol-2-yl)propionamide] | 71 | 2 | – | – | –
